For 10 molecules, TGI and GI50 results are on record in PubChem BioAssay (NCI).

Molecules are shown by their SMILES.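 Cells were grown in 96-well plates and exposed to each compound for 48 hours at five concentrations; endpoints were interpolated linearly between bracketing concentrations, or set to the highest concentration if not reached. Here, GI50 denotes the concentration required for 50% inhibition of growth. TGI is the concentration that stops growth completely.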

Assay in all cases: growth of human tumour cells (NCI), 48 h
Assay [1] has as its system CCRF-CEM leukemia.
Assay [2] deals with IGROV1 ovarian.
Assay [3] concerns MOLT-4 leukemia.
Assay [4] concerns OVCAR-4 ovarian.
Assay [5] has as its system RXF 393 renal.
Assay [6] concerns SF-268 CNS.
The subject of assay [7] is U251 CNS.
Assay [8] relates to UO-31 renal.
Assay [9] deals with LOX IMVI melanoma.
In assay [10] the test system is NCI/ADR-RES ovarian.

`COC12C=CC(CC1)c1c(O)ccc(O)c12` (stereo not drawn): the TGI in [1] is 65.1 µM; in assay [2], greater than 100 µM; in assay [3] it was greater than 79 µM; in assay [4] it was 46.6 µM; in assay [5], greater than 100 µM; in assay [6] it was greater than 31.6 µM. The TGI in [7] and in assay [8] was greater than 100 µM each time.
Consider `CC1(C)CCC2(C(=O)OC3OC(CO)C(O)C(O)C3O)CC[C@]3(C)C(=CCC4C5(C)CC[C@H](OC6OC(C(=O)O)C(O)C(O)C6O)C(C)(C)C5CCC43C)C2C1` (stereo partly drawn), for which the GI50 in [1] is 23.1 µM; in assay [2], 1.7 µM; in assay [9] it was 0.807 µM; in [3] it was 0.997 µM; in assay [10], greater than 50 µM; in assay [5], 1.65 µM. Also, the figures for the GI50 in assay [6], in assay [7] and in [8] were 2.17 µM, 1.06 µM and 12.7 µM, respectively. Besides, the TGI in assay [1] is greater than 50 µM; in [2], greater than 50 µM; in assay [9] it was 1.49 µM; in assay [3], 2.84 µM; in assay [10], greater than 50 µM; in assay [5], greater than 50 µM. Also, the TGI in assay [6] came to 11.4 µM; in assay [7], 2.61 µM; in [8], 31.8 µM.
Turning to `COC(=O)c1[nH]c(=S)[nH]c(=O)c1-c1ccc(Cl)cc1`, the TGI in assay [1], in [2], in assay [9], in assay [3], in assay [4] and in [5] was greater than 50 µM throughout. The TGI in assay [6], in assay [7] and in assay [8] was greater than 50 µM in each case.
Consider `COc1cc2cc(Oc3ccc(NC(=O)Nc4ccc(Cl)c(C(F)(F)F)c4)cc3)c(C)nc2cc1OCCN1CCCCC1`, for which the GI50 in assay [1] was 1.68 µM; in assay [2], 1.48 µM; in assay [3], 1.1 µM; in [10], 1.69 µM; in assay [4], 1.46 µM; in assay [8] it was 1.36 µM. Further, the TGI in [1] was determined as 3.76 µM; in [2] it was 2.94 µM; in assay [3], 2.71 µM; in assay [10] it was 3.27 µM; in assay [4] it was 3.29 µM; in [8], 2.69 µM.
With `CN(C)c1ccc2nc3ccc(=[N+](C)C)cc-3oc2c1`, the GI50 in assay [1] was 1.21 µM; in [2] it was 1.86 µM; in assay [9] it was 2.32 µM; in assay [3], 1.76 µM; in assay [10], 12.1 µM; in [5], 10.6 µM. Moreover, the GI50 in [6] was 1.59 µM; in [7], 0.725 µM; in [8] it was 12.8 µM. The TGI came out at 32.2 µM in [1]; 5.01 µM in [2]; 9.28 µM in assay [9]; 5.04 µM in assay [3]; 97.9 µM in [10]; 50.4 µM in assay [5]. The TGI in assay [6] turned out to be 4.64 µM; in assay [7], 4.8 µM; in [8] it was 89.3 µM.
With `CCN=C1C=CC(=C(c2ccc(N(C)C)cc2)c2ccc(N(C)C)cc2)c2ccccc21`, the GI50 is 0.153 µM in assay [1]; 0.0701 µM in assay [2]; 0.0528 µM in [9]; 0.202 µM in assay [3]; 0.636 µM in assay [10]; 0.114 µM in assay [4]. The GI50 in assay [6] is 0.114 µM; in [7] it was 0.0297 µM; in assay [8], 0.196 µM. In addition, the TGI turned out to be 3.64 µM in assay [1]; 0.711 µM in [2]; 1.01 µM in assay [9]; 2.54 µM in [3]; 3.94 µM in [10]; 1.6 µM in [4]. Further, the TGI stood at 0.981 µM in assay [6], 0.198 µM in [7] and 0.663 µM in [8].
For the molecule `O=C(CC1Sc2ccccc2NC1=O)Nc1cc(Cl)ccc1Cl` (stereo not drawn), the TGI in [1], in assay [2], in [9], in assay [3], in assay [4] and in assay [5] was greater than 100 µM in each case. Besides, the TGI in assay [6], in assay [7] and in assay [8] was greater than 100 µM each time.
Regarding `CC(=O)/C(=C\c1ccco1)C(=O)Nc1ccccc1`, the TGI in assay [1], in [2], in assay [9], in [3], in assay [4] and in [5] was greater than 100 µM in each case. In addition, the TGI in assay [6], in assay [7] and in assay [8] was greater than 100 µM each time.
As for `O=C1C(Cl)=C(N/N=c2/[nH][nH]/c(=N/NC3=C(Cl)C(=O)c4ccccc4C3=O)c3ccccc23)C(=O)c2ccccc21`, the GI50 is 10 µM in assay [1]; 17.7 µM in assay [2]; 15.3 µM in assay [9]; 4.9 µM in assay [3]; 21.4 µM in assay [10]; 12 µM in assay [4]. In addition, the GI50 in [6] is 12.2 µM; in assay [7], 15.4 µM; in assay [8] it was 12.3 µM. The TGI in assay [1] was 56.7 µM; in assay [2], 48.5 µM; in [9], 29.9 µM; in assay [3] it was 34.6 µM; in assay [10], 73.2 µM; in [4] it was 28.5 µM. Moreover, the TGI in assay [6] worked out at 29.9 µM; in assay [7] it was 29.2 µM; in assay [8], 25.9 µM.
Turning to `CN(C)CCCNC(=O)c1cc(NC(=O)CCNS(=O)(=O)c2ccc3c(c2)C(=O)c2ccccc2C3=O)cn1C`, the GI50 in [1], in assay [2], in assay [3], in [10], in [5] and in [6] was greater than 100 µM in each case. Moreover, the GI50 in assay [8] is greater than 100 µM. The TGI in assay [1], in assay [2], in assay [3], in assay [10], in assay [5] and in assay [6] was greater than 100 µM in each case. The same molecule displayed a TGI in assay [8] greater than 100 µM.
